Tests used:
Assay in all cases: biochemical
Assay type in all cases: binding
[1] = target: 468 kinases including some pathogenic mutants (Homo sapiens, UniProt Q6ZN16); conditions: MAP3K15 (Entrez MAP3K15), 1000 nM; read-out: Percent Control
[2] = target: 468 kinases including some pathogenic mutants (Homo sapiens, UniProt O95835); conditions: LATS1 (Entrez LATS1), 100 nM; read-out: Percent Control
[3] = target: 468 kinases including some pathogenic mutants (Homo sapiens, UniProt Q99759); conditions: MAP3K3 (Entrez MAP3K3), 100 nM; read-out: Percent Control
[4] = target: 468 kinases including some pathogenic mutants (Homo sapiens, UniProt P78356); conditions: PIP5K2B (Entrez PIP4K2B), 100 nM; read-out: Percent Control
[5] = target: 468 kinases including some pathogenic mutants (Homo sapiens, UniProt P36897); conditions: TGFBR1 (Entrez TGFBR1), 1000 nM; read-out: Percent Control
Sequence of 468 kinases including some pathogenic mutants (Homo sapiens, UniProt P36897) (P36897 34-503, stated change not applied): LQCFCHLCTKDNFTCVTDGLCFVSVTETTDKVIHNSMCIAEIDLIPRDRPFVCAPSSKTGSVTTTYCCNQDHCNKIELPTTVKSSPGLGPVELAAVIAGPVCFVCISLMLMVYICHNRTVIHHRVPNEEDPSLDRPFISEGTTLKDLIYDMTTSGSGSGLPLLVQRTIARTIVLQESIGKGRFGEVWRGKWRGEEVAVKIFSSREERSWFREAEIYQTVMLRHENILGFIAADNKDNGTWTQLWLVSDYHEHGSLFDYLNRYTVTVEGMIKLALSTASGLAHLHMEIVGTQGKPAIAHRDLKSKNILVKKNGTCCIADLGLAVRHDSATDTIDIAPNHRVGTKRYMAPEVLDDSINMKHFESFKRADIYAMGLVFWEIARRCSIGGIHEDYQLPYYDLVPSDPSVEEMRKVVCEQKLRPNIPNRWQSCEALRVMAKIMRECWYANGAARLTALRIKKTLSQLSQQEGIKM

[6] = target: 468 kinases including some pathogenic mutants (Homo sapiens, UniProt Q9UM73, C1156Y); conditions: read-out: Percent Control
[7] = target: 468 kinases including some pathogenic mutants (Homo sapiens, UniProt P31749); conditions: AKT1 (Entrez AKT1), 100 nM; read-out: Percent Control
Sequence of 468 kinases including some pathogenic mutants (Homo sapiens, UniProt P31749) (P31749 whole entry, change not shown): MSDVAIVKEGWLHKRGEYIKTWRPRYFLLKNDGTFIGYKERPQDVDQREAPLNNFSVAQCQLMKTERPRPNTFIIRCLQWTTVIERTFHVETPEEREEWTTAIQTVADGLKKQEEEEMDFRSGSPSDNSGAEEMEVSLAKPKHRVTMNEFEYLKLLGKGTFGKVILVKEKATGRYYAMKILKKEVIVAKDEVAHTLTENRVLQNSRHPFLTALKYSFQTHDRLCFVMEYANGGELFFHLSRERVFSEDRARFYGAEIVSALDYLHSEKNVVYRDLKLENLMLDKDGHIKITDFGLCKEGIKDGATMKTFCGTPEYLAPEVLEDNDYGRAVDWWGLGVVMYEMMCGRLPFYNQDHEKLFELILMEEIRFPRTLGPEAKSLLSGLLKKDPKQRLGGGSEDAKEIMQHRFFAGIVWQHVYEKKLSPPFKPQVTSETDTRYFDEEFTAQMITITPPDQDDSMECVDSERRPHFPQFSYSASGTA

[8] = target: 468 kinases including some pathogenic mutants (Homo sapiens, UniProt Q9H3Y6); conditions: SRMS (Entrez SRMS), 1000 nM; read-out: Percent Control
[9] = target: 468 kinases including some pathogenic mutants (Homo sapiens, UniProt P51956); conditions: NEK3 (Entrez NEK3), 100 nM; read-out: Percent Control
[10] = target: 468 kinases including some pathogenic mutants (Homo sapiens, UniProt P36888); conditions: FLT3-autoinhibited (Entrez FLT3), 100 nM; read-out: Percent Control
[11] = target: 468 kinases including some pathogenic mutants (Homo sapiens, UniProt P42680); conditions: TEC (Entrez TEC), 1000 nM; read-out: Percent Control
Sequence of 468 kinases including some pathogenic mutants (Homo sapiens, UniProt P42680) (P42680 whole entry, change not shown): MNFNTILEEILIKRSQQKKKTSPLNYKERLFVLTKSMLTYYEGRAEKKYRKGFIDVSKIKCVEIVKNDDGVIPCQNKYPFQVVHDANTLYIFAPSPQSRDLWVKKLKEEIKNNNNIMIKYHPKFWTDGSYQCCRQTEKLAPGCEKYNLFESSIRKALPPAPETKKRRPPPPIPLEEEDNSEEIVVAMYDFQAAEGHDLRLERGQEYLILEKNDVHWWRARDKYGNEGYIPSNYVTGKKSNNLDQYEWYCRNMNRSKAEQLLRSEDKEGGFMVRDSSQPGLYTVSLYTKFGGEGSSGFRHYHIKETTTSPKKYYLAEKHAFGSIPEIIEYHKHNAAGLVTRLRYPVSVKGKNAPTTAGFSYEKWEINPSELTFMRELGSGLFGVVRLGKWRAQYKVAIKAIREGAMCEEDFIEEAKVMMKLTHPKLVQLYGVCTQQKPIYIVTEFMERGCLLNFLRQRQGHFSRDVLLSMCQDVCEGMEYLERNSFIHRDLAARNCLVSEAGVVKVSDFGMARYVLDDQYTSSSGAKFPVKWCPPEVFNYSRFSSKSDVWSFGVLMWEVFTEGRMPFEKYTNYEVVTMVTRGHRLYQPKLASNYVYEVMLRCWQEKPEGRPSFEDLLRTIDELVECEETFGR

[12] = target: 468 kinases including some pathogenic mutants (Homo sapiens, UniProt P23443); conditions: S6K1 (Entrez RPS6KB1), 1000 nM; read-out: Percent Control
[13] = target: 468 kinases including some pathogenic mutants (Homo sapiens, UniProt Q9H0K1); conditions: SIK2 (Entrez SIK2), 1000 nM; read-out: Percent Control
Sequence of 468 kinases including some pathogenic mutants (Homo sapiens, UniProt Q9H0K1) (Q9H0K1 whole entry, change not shown): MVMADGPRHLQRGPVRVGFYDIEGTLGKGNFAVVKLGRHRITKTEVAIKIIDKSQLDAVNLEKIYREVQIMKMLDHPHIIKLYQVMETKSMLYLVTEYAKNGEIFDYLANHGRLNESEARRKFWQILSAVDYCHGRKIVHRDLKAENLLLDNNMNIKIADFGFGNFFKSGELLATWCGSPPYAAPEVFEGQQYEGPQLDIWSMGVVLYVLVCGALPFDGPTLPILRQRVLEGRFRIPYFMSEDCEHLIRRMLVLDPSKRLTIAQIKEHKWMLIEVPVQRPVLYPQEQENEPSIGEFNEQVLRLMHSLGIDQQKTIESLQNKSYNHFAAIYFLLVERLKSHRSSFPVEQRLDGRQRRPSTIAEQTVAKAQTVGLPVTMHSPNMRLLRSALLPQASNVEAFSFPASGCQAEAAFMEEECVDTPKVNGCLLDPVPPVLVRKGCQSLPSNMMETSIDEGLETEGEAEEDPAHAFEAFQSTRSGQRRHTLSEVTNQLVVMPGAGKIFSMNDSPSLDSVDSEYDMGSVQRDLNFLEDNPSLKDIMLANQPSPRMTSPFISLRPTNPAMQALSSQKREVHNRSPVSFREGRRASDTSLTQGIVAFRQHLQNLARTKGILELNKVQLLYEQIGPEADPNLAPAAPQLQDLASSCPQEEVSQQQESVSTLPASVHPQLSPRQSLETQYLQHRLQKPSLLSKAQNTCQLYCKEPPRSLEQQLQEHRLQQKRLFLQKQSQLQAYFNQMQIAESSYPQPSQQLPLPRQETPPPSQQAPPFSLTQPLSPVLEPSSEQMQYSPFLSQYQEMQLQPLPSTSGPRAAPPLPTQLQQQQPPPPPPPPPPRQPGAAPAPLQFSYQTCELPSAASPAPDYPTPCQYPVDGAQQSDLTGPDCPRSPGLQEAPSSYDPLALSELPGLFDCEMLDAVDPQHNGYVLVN

[14] = target: 468 kinases including some pathogenic mutants (Homo sapiens, UniProt Q9UEE5); conditions: DRAK1 (Entrez STK17A), 100 nM; read-out: Percent Control
[15] = target: 468 kinases including some pathogenic mutants (Homo sapiens, UniProt P08922); conditions: ROS1 (Entrez ROS1), 100 nM; read-out: Percent Control
[16] = target: 468 kinases including some pathogenic mutants (Homo sapiens, UniProt Q9Y2U5); conditions: MAP3K2 (Entrez MAP3K2), 1000 nM; read-out: Percent Control
[17] = target: 468 kinases including some pathogenic mutants (Homo sapiens, UniProt P57078); conditions: RIPK4 (Entrez RIPK4), 100 nM; read-out: Percent Control
[18] = target: 468 kinases including some pathogenic mutants (Homo sapiens, UniProt O95819); conditions: MAP4K4 (Entrez MAP4K4), 100 nM; read-out: Percent Control
[19] = target: 468 kinases including some pathogenic mutants (Homo sapiens, UniProt Q96RR4); conditions: CAMKK2 (Entrez CAMKK2), 100 nM; read-out: Percent Control
[20] = target: 468 kinases including some pathogenic mutants (Homo sapiens, UniProt P19784); conditions: CSNK2A2 (Entrez CSNK2A2), 100 nM; read-out: Percent Control
[21] = target: 468 kinases including some pathogenic mutants (Homo sapiens, UniProt Q00526); conditions: CDK3 (Entrez CDK3), 100 nM; read-out: Percent Control
Sequence of 468 kinases including some pathogenic mutants (Homo sapiens, UniProt Q00526) (Q00526 whole entry, change not shown): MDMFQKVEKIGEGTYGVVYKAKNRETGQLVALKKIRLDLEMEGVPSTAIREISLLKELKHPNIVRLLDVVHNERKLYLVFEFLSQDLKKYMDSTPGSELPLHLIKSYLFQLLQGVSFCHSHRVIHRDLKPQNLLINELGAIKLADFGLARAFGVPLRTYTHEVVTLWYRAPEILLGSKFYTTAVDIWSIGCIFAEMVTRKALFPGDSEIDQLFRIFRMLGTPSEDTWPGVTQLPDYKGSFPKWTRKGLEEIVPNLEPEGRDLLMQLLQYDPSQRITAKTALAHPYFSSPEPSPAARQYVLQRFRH

[22] = target: 468 kinases including some pathogenic mutants (Homo sapiens, UniProt O14730); conditions: RIOK3 (Entrez RIOK3), 100 nM; read-out: Percent Control
[23] = target: 468 kinases including some pathogenic mutants (Homo sapiens, UniProt Q9UBF8); conditions: PIK4CB (Entrez PI4KB), 100 nM; read-out: Percent Control
[24] = target: 468 kinases including some pathogenic mutants (Homo sapiens, UniProt O00506); conditions: YSK1 (Entrez STK25), 1000 nM; read-out: Percent Control
[25] = target: 468 kinases including some pathogenic mutants (Homo sapiens, UniProt Q8NG66); conditions: NEK11 (Entrez NEK11), 100 nM; read-out: Percent Control
Sequence of 468 kinases including some pathogenic mutants (Homo sapiens, UniProt Q8NG66) (Q8NG66 whole entry, stated change not applied): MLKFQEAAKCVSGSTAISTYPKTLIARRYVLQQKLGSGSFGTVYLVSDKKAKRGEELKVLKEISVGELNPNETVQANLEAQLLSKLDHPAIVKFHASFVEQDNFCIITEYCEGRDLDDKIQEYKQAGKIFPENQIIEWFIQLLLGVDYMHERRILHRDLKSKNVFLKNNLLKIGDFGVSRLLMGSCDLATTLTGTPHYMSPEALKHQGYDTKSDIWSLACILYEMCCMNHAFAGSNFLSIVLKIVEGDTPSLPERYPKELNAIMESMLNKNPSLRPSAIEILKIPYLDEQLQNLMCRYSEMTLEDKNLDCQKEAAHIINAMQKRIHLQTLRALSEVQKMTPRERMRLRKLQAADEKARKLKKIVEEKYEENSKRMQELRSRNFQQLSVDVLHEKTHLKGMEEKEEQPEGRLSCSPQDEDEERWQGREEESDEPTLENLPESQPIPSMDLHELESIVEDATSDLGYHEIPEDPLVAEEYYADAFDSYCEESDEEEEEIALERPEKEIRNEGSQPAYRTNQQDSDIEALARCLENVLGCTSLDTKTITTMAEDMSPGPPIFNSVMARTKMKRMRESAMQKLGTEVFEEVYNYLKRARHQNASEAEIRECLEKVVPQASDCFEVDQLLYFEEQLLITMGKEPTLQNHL

[26] = target: 468 kinases including some pathogenic mutants (Homo sapiens, UniProt P08581, Y1235D); conditions: read-out: Percent Control
[27] = target: 468 kinases including some pathogenic mutants (Homo sapiens, UniProt Q16288); conditions: TRKC (Entrez NTRK3), 100 nM; read-out: Percent Control
[28] = target: 468 kinases including some pathogenic mutants (Homo sapiens, UniProt P48730); conditions: CSNK1D (Entrez CSNK1D), 100 nM; read-out: Percent Control

Sequence of 468 kinases including some pathogenic mutants (Homo sapiens, UniProt Q6ZN16) (Q6ZN16 whole entry, change not shown): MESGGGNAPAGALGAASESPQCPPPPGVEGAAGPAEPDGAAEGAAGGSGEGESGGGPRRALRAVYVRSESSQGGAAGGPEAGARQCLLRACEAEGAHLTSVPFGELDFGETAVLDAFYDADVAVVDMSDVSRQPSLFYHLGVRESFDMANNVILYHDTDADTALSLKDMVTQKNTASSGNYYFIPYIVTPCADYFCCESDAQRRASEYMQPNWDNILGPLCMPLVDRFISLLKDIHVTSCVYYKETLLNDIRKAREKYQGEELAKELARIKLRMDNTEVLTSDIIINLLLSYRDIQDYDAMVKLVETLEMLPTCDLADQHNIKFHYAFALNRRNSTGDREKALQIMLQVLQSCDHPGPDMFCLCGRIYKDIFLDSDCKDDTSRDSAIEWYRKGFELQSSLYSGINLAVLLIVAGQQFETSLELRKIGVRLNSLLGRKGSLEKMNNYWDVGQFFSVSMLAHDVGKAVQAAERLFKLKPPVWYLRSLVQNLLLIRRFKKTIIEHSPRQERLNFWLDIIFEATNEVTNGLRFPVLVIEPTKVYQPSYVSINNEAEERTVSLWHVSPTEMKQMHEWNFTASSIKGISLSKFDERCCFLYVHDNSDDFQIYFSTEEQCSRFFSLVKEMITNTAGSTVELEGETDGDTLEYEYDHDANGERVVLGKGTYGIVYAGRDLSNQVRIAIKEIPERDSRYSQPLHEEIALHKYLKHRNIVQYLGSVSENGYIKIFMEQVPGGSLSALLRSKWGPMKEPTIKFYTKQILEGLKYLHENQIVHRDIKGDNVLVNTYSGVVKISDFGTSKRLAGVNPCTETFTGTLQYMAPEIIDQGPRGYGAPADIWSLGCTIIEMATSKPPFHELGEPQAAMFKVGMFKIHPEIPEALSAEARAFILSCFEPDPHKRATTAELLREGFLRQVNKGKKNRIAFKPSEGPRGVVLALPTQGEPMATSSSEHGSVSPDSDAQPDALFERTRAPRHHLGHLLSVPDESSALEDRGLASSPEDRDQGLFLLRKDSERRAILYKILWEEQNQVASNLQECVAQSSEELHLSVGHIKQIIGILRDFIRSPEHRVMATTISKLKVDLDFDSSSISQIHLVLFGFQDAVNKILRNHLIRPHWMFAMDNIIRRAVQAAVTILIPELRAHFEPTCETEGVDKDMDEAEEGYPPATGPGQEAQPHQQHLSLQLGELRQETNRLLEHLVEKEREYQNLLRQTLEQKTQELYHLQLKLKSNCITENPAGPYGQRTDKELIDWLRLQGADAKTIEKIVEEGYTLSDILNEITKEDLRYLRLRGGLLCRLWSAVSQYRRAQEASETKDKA

With `CN1C(=O)[C@@H](N2CCc3c(nn(Cc4ccccc4)c3C(N)=O)C2=O)COc2cc(Cl)ccc21` [Compound 10, (S)-2-benzyl-6-(8-chloro-5-methyl-4-oxo-2,3,4,5-tetrahydrobenzo[b][1,4]oxazepin-3-yl)-7-oxo-4,5,6,7-tetrahydro-2H-pyrazolo[3,4-c]pyridine-3-carboxamide] the remaining activity at 1 µM [1] was 100%, the remaining activity at 0.1 µM [2] was 62% and the remaining activity at 0.1 µM [3] was 66%. The remaining activity at 0.1 µM [4] was 55%, the remaining activity at 1 µM [5] was 100% and the remaining activity at 0.1 µM [6] was 93%. The remaining activity at 0.1 µM [7] was 87%, the remaining activity at 1 µM [8] was 100% and the remaining activity at 0.1 µM [9] was 100%. For the same compound, the remaining activity at 0.1 µM [10] was 84%, the remaining activity at 1 µM [11] was 100% and the remaining activity at 1 µM [12] was 100%. It also gave a remaining activity at 1 µM [13] of 100%, a remaining activity at 0.1 µM [14] of 84% and a remaining activity at 0.1 µM [15] of 78%. The remaining activity at 1 µM [16] was 100%, the remaining activity at 0.1 µM [17] was 96% and the remaining activity at 0.1 µM [18] was 99%. It also gave a remaining activity at 0.1 µM [19] of 76%, a remaining activity at 0.1 µM [20] of 74% and a remaining activity at 0.1 µM [21] of 80%. For the same compound, the remaining activity at 0.1 µM [22] was 63%, the remaining activity at 0.1 µM [23] was 94% and the remaining activity at 1 µM [24] was 100%. The remaining activity at 0.1 µM [25] was 76%, the remaining activity at 0.1 µM [26] was 87% and the remaining activity at 0.1 µM [27] was 79%. It also gave a remaining activity at 0.1 µM [28] of 79%.

Source: publication PMC12090182, “Repurposing of the RIPK1-Selective Benzo[1,4]oxazepin-4-one Scaffold for the Development of a Type III LIMK1/2 Inhibitor” (ACS Chemical Biology, 2025)
